For data set [1], the system named is green peach aphid (Myzus persicae). As to the kind of experiment: Myzus persicae spray test (Chinese cabbage leaf discs). It is filed as in vivo. To be noted: foliar, 144 h, read-out: efficacy in %. How it is done: (§1) Myzus persicae—Spray Test
Solvent: • 78 parts by weight of acetone • 1.5 parts by weight of dimethylformamide
(§2) Emulsifier: alkylaryl polyglycol ether
(§3) To produce a suitable preparation of active compound, 1 part by weight of active compound is dissolved using the specified parts by weight of solvent and made up with water containing an emulsifier concentration of 1000 ppm until the desired concentration is attained. To produce further test concentrations, the formulation is diluted with emulsifier-containing water.
Discs of Chinese cabbage leaves (Brassica pekinensis) infested by all stages of the green peach aphid (Myzus persicae) are sprayed with an active compound formulation of the desired concentration.
After 6 days, the efficacy in % is determined. 100% means that all the aphids have been killed; 0% means that no aphids have been killed.

A short description of data set [2]: log P by HPLC on reversed-phase columns (OECD Guideline 117), [a] acidic pH 2.7, [b] neutral pH 7.8. It is filed as physicochemical. The note with it: reversed-phase (C18) HPLC column. On the procedure: The log P values were determined in accordance with OECD Guideline 117 (EC Directive 92/69/EEC) by HPLC (high-performance liquid chromatography) using reversed-phase (RP) columns (C18), by the following methods:
[a] The LC-MS determination in the acidic range is carried out at pH 2.7 with 0.1% aqueous formic acid and acetonitrile (contains 0.1% formic acid) as eluents; linear gradient from 10% acetonitrile to 95% acetonitrile.
[b] LC-MS determination in the neutral range is effected at pH 7.8 with 0.001 molar aqueous ammonium hydrogencarbonate solution and acetonitrile as eluents; linear gradient from 10% acetonitrile to 95% acetonitrile.
Calibration is carried out using unbranched alkan-2-ones (having 3 to 16 carbon atoms) with known log P values (log P values determined on the basis of the retention times by linear interpolation between two successive alkanones).

In data set [3] the test system is southern root-knot nematode (Meloidogyne incognita). In words: Meloidogyne incognita test. The note with it: application rate 20 ppm; after 14 days; lettuce; 100% = no galls found. It is filed as in vivo. How it is done:
Meloidogyne incognita—Test
Solvent: 125.0 parts by weight of acetone
To produce a suitable active compound preparation, 1 part by weight of active compound is mixed with the stated amount of solvent and the concentrate is diluted with water to the desired concentration.
Vessels are filled with sand, active compound solution, an egg/larvae suspension of the southern root-knot nematode (Meloidogyne incognita) and lettuce seeds. The lettuce seeds germinate and the plants develop. The galls develop on the roots.
After 14 days, the nematicidal efficacy in % is determined by the formation of galls. 100% means that no galls were found; 0% means that the number of galls on the treated plants corresponds to the untreated control.

Data set [4] has as its system engorged adult female cattle ticks (Boophilus microplus). As to the kind of experiment: Boophilus microplus injection test. The note with it: application rate 20 μg/animal, assessed after 7 days, 100% = no tick laid fertile eggs. It is filed as in vivo. On the procedure: Boophilus microplus—Injection Test
Solvent: dimethyl sulphoxide
To produce a suitable preparation of active compound, 10 mg of active compound are mixed with 0.5 ml of solvent and the concentrate is diluted with solvent to the desired concentration.
1 μl of the active compound solution is injected into the abdomen of 5 engorged adult female cattle ticks (Boophilus microplus). The animals are transferred into dishes and kept in a climate-controlled room.
Efficacy is assessed after 7 days by laying of fertile eggs. Eggs which are not externally visibly fertile are stored in a climate-controlled cabinet until the larvae hatch after about 42 days. An efficacy of 100% means that none of the ticks has laid any fertile eggs; 0% means that all the eggs are fertile.

In data set [5] the test system is caterpillars of the armyworm (Spodoptera frugiperda). In words: Spodoptera frugiperda spray test. The data set is classed as in vivo. To be noted: application rate 500 g/ha; after 7 days; maize leaf discs; 100% = all caterpillars killed. How it is done: Spodoptera frugiperda—Spray Test
(§4) Solvent: • 78.0 parts by weight of acetone • 1.5 parts by weight of dimethylformamide
as §2, §3
Leaf discs of maize (Zea mays) are sprayed with an active compound formulation of the desired concentration and, after drying, populated with caterpillars of the armyworm (Spodoptera frugiperda).
After 7 days, the efficacy in % is determined. 100% means that all the caterpillars have been killed; 0% means that no caterpillar has been killed.

Data set [6] concerns larvae of the mustard beetle (Phaedon cochleariae). In words: Phaedon cochleariae spray test. To be noted: application rate 500 g/ha; after 7 days; 100% = all beetle larvae killed. It is filed as in vivo. How it is done:
Phaedon cochleariae—Spray Test
as §4, §2, §3
Discs of Chinese cabbage leaves (Brassica pekinensis) are sprayed with an active compound preparation of the desired concentration and, after drying, populated with larvae of the mustard beetle (Phaedon cochleariae).
After 7 days, the efficacy in % is determined. 100% means that all the beetle larvae have been killed; 0% means that no beetle larvae have been killed.

The subject of data set [7] is greenhouse red spider mite (Tetranychus urticae). As to the kind of experiment: Tetranychus urticae spray test, OP-resistant. It is filed as in vivo. The note with it: application rate 500 g/ha; after 6 days; bean leaf discs; 100% = all spider mites killed. On the procedure:
Tetranychus urticae—Spray Test, OP-Resistant
as §4, §2, §3
Discs of bean leaves (Phaseolus vulgaris) infested with all stages of the greenhouse red spider mite (Tetranychus urticae) are sprayed with an active compound formulation of the desired concentration.
After 6 days, the efficacy in % is determined. 100% means that all the spider mites have been killed; 0% means that no spider mites have been killed.

Data set [8] relates to green peach aphid (Myzus persicae). As to the kind of experiment: Myzus persicae spray test (bell pepper plants). The data set is classed as in vivo. To be noted: application rate 4 ppm, after 6 days, 100% = all aphids killed. How it is done: as §1
Solvent: 7 parts by weight of dimethylformamide
as §2
To produce a suitable preparation of active compound, 1 part by weight of active compound is dissolved using the specified parts by weight of solvent and made up with water containing an emulsifier concentration of 1000 ppm until the desired concentration is attained. To produce further test concentrations, the formulation is diluted with emulsifier-containing water. If the addition of ammonium salts or/and penetrants is required, these are each added in a concentration of 1000 ppm to the formulation solution.
Bell pepper plants (Capsicum annuum) severely infested with the green peach aphid (Myzus persicae) are treated by spraying with the active compound formulation in the desired concentration.
After 6 days, the kill in % is determined. 100% means that all of the aphids have been killed; 0% means that none of the aphids have been killed.

Where [9] appears, read: acidic pH 2.7, read-out: logP[a].
[10] abbreviates: neutral pH 7.8, read-out: logP[b].

SMILES strings stand for the structures. Where two headings read alike, the source gives them in different places.

Regarding `Fc1cccc(-c2ccc3nn(-c4cccnc4)cc3c2)n1` [Example 104], the pest or weed control at 500 g/ha in data set [1] amounted to 90%. In addition, the results for the chromatographic logP in data set [2] (setting [9]) and in data set [2] (setting [10]) were 2.4 and 2.44, respectively. Besides, in data set [3], the “nematicidal efficacy in % (formation of galls)” value is on record as 90%.
In the case of `Cc1cc(F)c(-c2ccc3nn(-c4cccnc4)cc3c2)cc1[S+]([O-])CC(F)(F)F` (stereo not shown) [Example 52, 5-[2-Fluoro-4-methyl-5-(2,2,2-trifluoroethylsulphinyl)phenyl]-2-(3-pyridyl)indazole], in data set [1], the pest or weed control at 500 g/ha came out at 100%. The “efficacy (laying of fertile eggs)” value in data set [4] is 100%. The chromatographic logP in data set [2] (setting [9]) amounted to 2.8; in data set [2] (setting [10]), 2.74.
Consider `FC(F)(F)Cn1cc(-c2ccc3nn(-c4cccnc4)cc3c2)cn1` [Example 99, 2-(Pyridin-3-yl)-5-[1-(2,2,2-trifluoroethyl)-1H-pyrazol-4-yl]-2H-indazole], for which the pest or weed control at 500 g/ha in data set [1] was 90%. The chromatographic logP in data set [2] (setting [9]) and in data set [2] (setting [10]) was 2.12 in each case. Further, the “nematicidal efficacy in % (formation of galls)” value in data set [3] is on record as 90%.
Regarding `CN(C)C(=O)c1ccc2nn(-c3cnn(C)c3)cc2c1` [Example 38], the efficacy in % in data set [5] and in data set [6] was 100% each time.
For the molecule `Cc1cc(F)c(C(=O)N(C)c2ccc3nn(-c4cnn(C)c4)cc3c2)cc1[S+]([O-])CC(F)(F)F` (stereo not shown) [Example 117], the efficacy in % in data set [7] is given as 90%.
For `Cc1cc(C)c(-c2ccc3nn(-c4cccnc4)cc3c2)cc1SCC(F)(F)F` [Example 51, 5-[2,4-Dimethyl-5-(2,2,2-trifluoroethylsulphanyl)phenyl]-2-(3-pyridyl)indazole], the “efficacy (kill in %)” value in data set [8] is 100%. Besides, the pest or weed control at 500 g/ha in data set [1] was 90%. Further, the chromatographic logP in data set [2] (setting [9]) turned out to be 4.42; in data set [2] (setting [10]), 4.4.

The values above are taken from US10131649B2, “Bicyclic compounds as pest control agents” (BAYER CROPSCIENCE AKTIENGESELLSCHAFT, priority 2014, dated 2018).
